In patent publication US12479827B2, “Heteroaromatic carboxamide derivatives as plasma kallikrein inhibitors” (Boehringer Ingelheim International GmbH, priority 2020, dated 2025):

Key:
Human PKK = target: T1, Human PKK (Homo sapiens, UniProt P03952); experiment: Inhibition of PKK using an endpoint assay (human PKK); assay type: biochemical; conditions: fluorogenic substrate H-Pro-Phe-Arg-AMC, 1 h room temperature, method names human or rat PKK, table does not say which
T1 construct: purchased Enzyme Research Laboratories
T1 sequence (P03952 20-390 limits assumed): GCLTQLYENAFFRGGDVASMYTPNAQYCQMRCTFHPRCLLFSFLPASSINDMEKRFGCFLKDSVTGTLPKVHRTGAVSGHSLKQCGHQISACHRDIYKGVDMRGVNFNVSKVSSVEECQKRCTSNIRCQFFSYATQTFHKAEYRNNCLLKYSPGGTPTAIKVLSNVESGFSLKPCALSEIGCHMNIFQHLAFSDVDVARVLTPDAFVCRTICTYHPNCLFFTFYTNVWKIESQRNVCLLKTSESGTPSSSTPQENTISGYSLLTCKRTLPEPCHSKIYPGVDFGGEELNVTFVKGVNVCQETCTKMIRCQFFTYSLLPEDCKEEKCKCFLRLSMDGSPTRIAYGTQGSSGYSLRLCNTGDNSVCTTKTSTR
T1 sequence (P03952 391-638 limits assumed): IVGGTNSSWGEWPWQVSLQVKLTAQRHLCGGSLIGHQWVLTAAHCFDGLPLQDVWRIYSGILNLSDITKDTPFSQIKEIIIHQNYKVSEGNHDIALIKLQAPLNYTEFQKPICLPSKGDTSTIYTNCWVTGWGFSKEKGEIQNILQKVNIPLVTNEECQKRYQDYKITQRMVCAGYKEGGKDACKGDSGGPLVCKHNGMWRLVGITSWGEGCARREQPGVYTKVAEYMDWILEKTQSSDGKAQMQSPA
Procedure: The ability of compounds of formula (I) to inhibit plasma kallikrein (PKK), Factor XIIa (FXIIa), Factor XIa (FXIa), Factor Xa (FXa), Factor IIa (alpha-thrombin; FIIa), plasmin, trypsin, tissue kallikrein 1 (TK1), Factor VIIa (FVIIa), or FVIIa complexed with Tissue Factor, phospholipids and CaCl2 (FVIIa/TF/PL/CaCl2) is determined using the following biochemical assays in assay buffer (100 mM Tris, 150 mM NaCL, adjusted to a pH of 7.8 with HCl, and containing 0.1% (w/v) BSA and 0.05% (v/v) Tween20) in the presence of 1% (v/v) DMSO:
Subsequently, PPACK II (Calbiochem) is added as a stop solution to achieve a final concentration of 1 μM and fluorescence is measured using an Envision Reader (PerkinElmer) with the wavelength excitation setting of 355 nm and the wavelength emission setting of 460 nm.

[1] = target: T2, PKK in kaolin activated human platelet poor plasma (Homo sapiens, UniProt P03952); experiment: Inhibition of PKK in kaolin activated human PPP; assay type: biochemical; conditions: 25-750 μg/mL kaolin, global fit, text b200 calls the values IC90;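 note: readout is the rate of fluorogenic substrate cleavage in rfu per min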
T2 construct: Platelet poor plasma (PPP) obtained from human wholeblood; from tissue
T2 sequence (P03952 391-638 limits assumed): as above
T2 sequence (P03952 20-390 limits assumed): as the sequence (P03952 20-390 limits assumed) above
Procedure: Platelet poor plasma (PPP) obtained from human wholeblood, anticoagulated with Na-Citrate, is incubated with various concentrations of the test compound together with either 25, 75, 250, or 750 μg/mL kaolin in assay buffer for 20 min at 37° C. such that for each kaolin dose used a concentration response is obtained for the test compound.

SMILES	IC50 (Human PKK) [µM]	IC50 [1] [µM]
Cn1cnc2c1CC[C@H]2NC(=O)c1cn(Cc2ccc(N3CC4(CC4)C3)nc2F)nn1 [Example 10, 1-[(6-{5-Azaspiro[2.3]hexan-5-yl}-2-fluoropyridin-3-yl)methyl]-N-[(4R)-1-methyl-1H,4H,5H,6H-cyclo-penta[d]imidazol-4-yl]-1H-1,2,3-triazole-4-carboxamide]	0.0025	0.789
Cn1cnc2c1CC[C@H]2NC(=O)c1cn(Cc2ccc(N3CC4(CC4)C3)nc2F)cn1 [Example 11, 1-[(6-{5-Azaspiro[2.3]hexan-5-yl}-2-fluoropyridin-3-yl)methyl]-N-[(4R)-1-methyl-1H,4H,5H,6H-cyclopenta[d]imidazol-4-yl]-1H-imidazole-4-carboxamide]	0.0021	0.3
Cn1cnc2c1CC[C@H]2NC(=O)c1cnn(Cc2ccc(N3CC4(CC4)C3)nc2F)c1 [Example 12, 1-[(6-{5-Azaspiro[2.3]hexan-5-yl}-2-fluoropyridin-3-yl)methyl]-N-[(4R)-1-methyl-1H,4H,5H,6H-cyclopenta[d]imidazol-4-yl]-1H-pyrazole-4-carboxamide]	0.0034	0.802
Cn1cnc2c1CC[C@H]2NC(=O)c1cnn(Cc2ccc(N3CC4(CC4)C3)nc2Br)c1 [Example 13, 1-[(6-{5-Azaspiro[2.3]hexan-5-yl}-2-bromopyridin-3-yl)methyl]-N-[(4R)-1-methyl-1H,4H,5H,6H-cyclopenta[d]imidazol-4-yl]-1H-pyrazole-4-carboxamide]	0.0011	0.451
Cn1cnc2c1CC[C@H]2NC(=O)c1cn(Cc2ccc(N3CC4C(C3)C4(F)F)nc2Br)nn1 (stereo partly drawn) [Example 14, 1-[(2-Bromo-6-{6,6-difluoro-3-azabicyclo-[3.1.0]hexan-3-yl}pyridin-3-yl)methyl]-N-[(4R)-1-methyl-1H,4H,5H,6H-cyclopenta[d]imidazol-4-yl]-1H-1,2,3-triazole-4-carboxamide]	0.001	0.636
Cn1cnc2c1CC[C@H]2NC(=O)c1cnn(Cc2ccc(N3CC4C(C3)C4(F)F)nc2Br)c1 (stereo partly drawn) [Example 15, 1-[(2-Bromo-6-{6,6-difluoro-3-azabicyclo-[3.1.0]hexan-3-yl}pyridin-3-yl)methyl]-N-[(4R)-1-methyl-1H,4H,5H,6H-cyclopenta[d]imidazol-4-yl]-1H-pyrazole-4-carboxamide]	0.0011	0.414
Cn1cnc2c1CC[C@H]2NC(=O)c1cn(Cc2ccc(N3CC4CC4C3)nc2F)nn1 (stereo partly drawn) [Example 17, 1-[(6-{3-Azabicyclo[3.1.0]hexan-3-yl}-2-fluoropyridin-3-yl)methyl]-N-[(4R)-1-methyl-1H,4H,5H,6H-cyclo-penta[d]imidazol-4-yl]-1H-1,2,3-triazole-4-carboxamide]	0.002	0.818
Cn1cnc2c1CC[C@H]2NC(=O)c1cnn(Cc2ccc(N3CC4C(C3)C4(F)F)nc2F)c1 (stereo partly drawn) [Example 18, 1-[(6-{6,6-Difluoro-3-azabicyclo[3.1.0]hexan-3-yl}-2-fluoropyridin-3-yl)methyl]-N-[(4R)-1-methyl-1H,4H,5H,6H-cyclopenta[d]imidazol-4-yl]-1H-pyrazole-4-carboxamide]	0.0021	0.46
Cn1cnc2c1CC[C@H]2NC(=O)c1cn(Cc2ccc(N3CC4(CC4)C3)nc2Cl)cn1 [Example 21, 1-[(6-{5-Azaspiro[2.3]hexan-5-yl}-2-chloropyridin-3-yl)methyl]-N-[(4R)-1-methyl-1H,4H,5H,6H-cyclopenta[d]imidazol-4-yl]-1H-imidazole-4-carboxamide]	0.0009	0.325
Cn1cnc2c1CC[C@H]2NC(=O)c1cn(Cc2ccc(N3CC4C(C3)C4(F)F)nc2F)nn1 (stereo partly drawn) [Example 25, 1-[(6-{6,6-Difluoro-3-azabicyclo[3.1.0]hexan-3-yl}-2-fluoropyridin-3-yl)methyl]-N-[(4R)-1-methyl-1H,4H,5H,6H-cyclopenta[d]imidazol-4-yl]-1H-1,2,3-triazole-4-carboxamide]	0.002	0.286
Cn1cnc2c1CC[C@H]2NC(=O)c1cn(Cc2ccc(N3CC4(CC4)C3)nc2)nn1 [Example 26, 1-[(6-{5-Azaspiro[2.3]hexan-5-yl}pyridin-3-yl)-methyl]-N-[(4R)-1-methyl-1H,4H,5H,6H-cyclopenta[d]imidazol-4-yl]-1H-1,2,3-triazole-4-carboxamide]	0.0049	0.343
Cn1cnc2c1CC[C@H]2NC(=O)c1cn(Cc2ccc(N3CC4C(C3)C4(F)F)nc2Br)cn1 (stereo partly drawn) [Example 28, 1-[(2-Bromo-6-{6,6-difluoro-3-azabicyclo-[3.1.0]hexan-3-yl}pyridin-3-yl)methyl]-N-[(4R)-1-methyl-1H,4H,5H,6H-cyclopenta[d]imidazol-4-yl]-1H-imidazole-4-carboxamide]	0.0006	0.184
Cn1cnc2c1CC[C@H]2NC(=O)c1cn(Cc2cnc(N3CC4CC4C3)nc2C(F)F)cn1 (stereo partly drawn) [Example 29, 1-[(2-{3-Azabicyclo[3.1.0]hexan-3-yl}-4-(difluoromethyl)-pyrimidin-5-yl)methyl]-N-[(4R)-1-methyl-1H,4H,5H,6H-cyclopenta[d]imidazol-4-yl]-1H-imidazole-4-carboxamide]	0.0026	0.336
Cn1cnc2c1CC[C@H]2NC(=O)c1cn(Cc2ccc(N3CC4CC4C3)nc2C(F)F)nn1 (stereo partly drawn) [Example 30, 1-[(6-{3-Azabicyclo[3.1.0]hexan-3-yl}-2-(difluoromethyl)-pyridin-3-yl)methyl]-N-[(4R)-1-methyl-1H,4H,5H,6H-cyclo-penta[d]imidazol-4-yl]-1H-1,2,3-triazole-4-carboxamide]	0.0009	0.334
CCCc1nc(N2CC3CC3C2)ccc1Cn1cnc(C(=O)N[C@@H]2CCc3c2ncn3C)c1 (stereo partly drawn) [Example 31, 1-[(6-{3-Azabicyclo[3.1.0]hexan-3-yl}-2-propylpyridin-3-yl)methyl]-N-[(4R)-1-methyl-1H,4H,5H,6H-cyclopenta[d]imidazol-4-yl]-1H-imidazole-4-carboxamide]	0.0053	0.973
Cn1cnc2c1CC[C@H]2NC(=O)c1cn(Cc2ccc(N3CC4CC4C3)nc2Cl)nn1 (stereo partly drawn) [Example 32, 1-[(6-{3-Azabicyclo[3.1.0]hexan-3-yl}-2-chloropyridin-3-yl)methyl]-N-[(4R)-1-methyl-1H,4H,5H,6H-cyclopenta-[d]imidazol-4-yl]-1H-1,2,3-triazole-4-carboxamide]	0.0011	0.548
Cn1cnc2c1CC[C@H]2NC(=O)c1cn(Cc2ccc(N3CC4C(C3)C4(F)F)nc2)nn1 (stereo partly drawn) [Example 33, 1-[(6-{6,6-Difluoro-3-azabicyclo[3.1.0]hexan-3-yl}pyridin-3-yl)methyl]-N-[(4R)-1-methyl-1H,4H,5H,6H-cyclo-penta[d]imidazol-4-yl]-1H-1,2,3-triazole-4-carboxamide]	0.0025	0.265
Cn1cnc2c1CC[C@H]2NC(=O)c1cn(Cc2ccc(N3CC4CC4C3)nc2Br)nn1 (stereo partly drawn) [Example 34, 1-[(6-{3-Azabicyclo[3.1.0]hexan-3-yl}-2-bromopyridin-3-yl)methyl]-N-[(4R)-1-methyl-1H,4H,5H,6H-cyclopenta-[d]imidazol-4-yl]-1H-1,2,3-triazole-4-carboxamide]	0.0009	1.19
